According to patent US20200239530A1, “COMPOUNDS AND METHODS OF MODULATING PROTEIN DEGRADATION” (Vividion Therapeutics, Inc., priority 2017, published 2020):

Target: T1, POGZ Pogo transposable element with ZNF domain (Homo sapiens, UniProt Q7Z3K3)
T1 construct: Cells were resuspended in cold PBS on ice and sonicated with a probe sonicator to achieve lysis; endogenous in cells
T1 sequence (Q7Z3K3 1-1410): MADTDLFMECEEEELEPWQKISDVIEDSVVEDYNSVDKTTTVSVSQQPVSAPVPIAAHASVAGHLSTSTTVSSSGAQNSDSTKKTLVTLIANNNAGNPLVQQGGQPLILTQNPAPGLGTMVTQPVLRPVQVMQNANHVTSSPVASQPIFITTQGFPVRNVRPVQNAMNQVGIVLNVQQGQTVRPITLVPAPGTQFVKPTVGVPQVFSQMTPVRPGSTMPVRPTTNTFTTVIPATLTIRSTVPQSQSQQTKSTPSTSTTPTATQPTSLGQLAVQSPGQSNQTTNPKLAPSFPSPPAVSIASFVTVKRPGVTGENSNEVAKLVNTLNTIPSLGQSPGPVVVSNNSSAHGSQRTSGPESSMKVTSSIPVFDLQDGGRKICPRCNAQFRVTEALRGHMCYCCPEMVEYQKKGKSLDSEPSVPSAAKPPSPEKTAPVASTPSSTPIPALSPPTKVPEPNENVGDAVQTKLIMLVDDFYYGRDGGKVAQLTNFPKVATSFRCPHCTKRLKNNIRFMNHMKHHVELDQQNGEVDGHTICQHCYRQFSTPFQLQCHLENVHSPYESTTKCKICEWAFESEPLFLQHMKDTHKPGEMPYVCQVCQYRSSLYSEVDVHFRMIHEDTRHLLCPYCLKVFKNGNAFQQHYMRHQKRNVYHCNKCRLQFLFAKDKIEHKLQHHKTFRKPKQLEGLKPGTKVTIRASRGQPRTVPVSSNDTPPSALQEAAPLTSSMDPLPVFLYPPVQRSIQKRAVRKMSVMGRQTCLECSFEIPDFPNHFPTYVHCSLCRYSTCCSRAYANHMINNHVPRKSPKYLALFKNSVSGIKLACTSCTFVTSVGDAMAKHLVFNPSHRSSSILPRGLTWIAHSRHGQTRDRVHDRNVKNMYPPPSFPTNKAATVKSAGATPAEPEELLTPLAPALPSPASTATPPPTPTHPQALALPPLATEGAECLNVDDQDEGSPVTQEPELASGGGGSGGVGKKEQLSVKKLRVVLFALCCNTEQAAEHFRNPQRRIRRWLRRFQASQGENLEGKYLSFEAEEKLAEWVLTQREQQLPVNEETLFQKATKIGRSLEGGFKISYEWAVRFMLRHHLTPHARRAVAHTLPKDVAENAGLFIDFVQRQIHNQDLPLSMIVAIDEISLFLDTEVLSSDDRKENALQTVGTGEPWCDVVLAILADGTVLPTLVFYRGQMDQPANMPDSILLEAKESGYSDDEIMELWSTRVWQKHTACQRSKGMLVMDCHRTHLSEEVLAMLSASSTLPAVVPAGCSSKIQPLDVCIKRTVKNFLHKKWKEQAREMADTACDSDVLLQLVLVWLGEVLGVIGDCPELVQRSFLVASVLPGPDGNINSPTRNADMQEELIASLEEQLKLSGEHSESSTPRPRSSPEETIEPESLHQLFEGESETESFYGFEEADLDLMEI
Experiment: Cysteine liganding, probe competition
Format: binding
Outline: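 Probe competition in native proteome: 5 mg/ml lysate, compound 1 hr 25° C, then desthiobiotin iodoacetamide (10 mM stock) 1 hr 25° C; acetone ppt, urea/DTT reduction, iodoacetamide alkylation, trypsin, streptavidin pull-down.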

Row | Structure (SMILES) | Liganded (POGZ Res# 547, uniprot Q7Z3K3) | 100 Max (uniprot Q7Z3K3) | 100 ave (uniprot Q7Z3K3) | 500 Max (uniprot Q7Z3K3) | 500 ave (uniprot Q7Z3K3)
1 | COc1ccc2c(c1)CCCN2C(=O)CCl [KB02] | YES |  |  |  | 
2 | O=C(CCl)Nc1cc(C(F)(F)F)cc(C(F)(F)F)c1 [KBO3] |  | 2.21 | −8.9575 | 15.64 | 13.995
